IC50 data for 15 molecules are collected here from patent US20240132464A1, “HETEROCYCLIC COMPOUNDS AS E3 LIGASE INHIBITORS” (Accutar Biotechnology Inc., priority 2022, published 2024).

Each structure is given as a SMILES string.

This assay concerns the target T1, GID4 (Uniprot ID: Q81VV7, residues 124-289) (Homo sapiens, UniProt Q8IVV7).
T1 construct: GID4 (Uniprot ID: Q81VV7, residues 124-289)
T1 sequence (Q8IVV7 124-289): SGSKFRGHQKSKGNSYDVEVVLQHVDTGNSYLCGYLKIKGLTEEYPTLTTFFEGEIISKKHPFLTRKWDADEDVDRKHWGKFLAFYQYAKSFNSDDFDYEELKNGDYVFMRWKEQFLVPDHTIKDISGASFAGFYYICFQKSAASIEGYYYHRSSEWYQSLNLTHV
Nature of the assay: GID4 competitive binding assay (AlphaScreen, GID4/degron peptide PGLW). As to conditions: 24 nM GID4, 48 nM biotinylated degron peptide PGLW, 4° C., read-out: IC50 (Inhibition of GID4/Degron binding by test compounds). The procedure, abridged:
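Displacement of biotin-tagged degron tetrapeptide PGLW (48 nM) from C-terminally 6His-tagged GID4 124-289 (24 nM) read by AlphaScreen proximity signal. Compound incubation 2 h, then beads 1 h, all at 4 °C, pH 7.5, 2% DMSO final; background-corrected inhibition fitted with variable slope for IC50.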
On to `CC(C)c1cc(N2CCNC(c3cnc4ccccn34)C2)c2cc[nH]c2n1` (racemic) [Compound 371, (R/S)-3-(4-(6-isopropyl-1H-pyrrolo[2,3-b]pyridin-4-yl)piperazin-2-yl)imidazo[1,2-a]pyridine], for which the IC50 is < 500 nM.

For the molecule `c1ccn2c(C3CCCN(c4ncnc5[nH]ccc45)C3)cnc2c1` (stereo not drawn) [Compound 90, 4-(3-(imidazo[1,2-a]pyridin-3-yl)piperidin-1-yl)-7H-pyrrolo[2,3-d]pyrimidine], the IC50 was > 5000 nM.

In the case of `Nc1nc2c(c(N3CCCC(c4ccn[nH]4)C3)n1)CSC2` (stereo not drawn) [Compound 199, 4-(3-(1H-pyrazol-5-yl)piperidin-1-yl)-5,7-dihydrothieno[3,4-d]pyrimidin-2-amine], the IC50 is > 5000 nM.

`CNc1cc(N2CCCC(c3cnc4ccccn34)C2)nc(C(C)C)n1` (single isomer, unassigned) [Compound 126, (R/S)-6-(3-(imidazo[1,2-a]pyridin-3-yl)piperidin-1-yl)-2-isopropyl-N-methylpyrimidin-4-amine]: the IC50 is < 500 nM.

As to `CC(C)c1cc(N2CCNC(c3cc(N4CC(CO)C4)ccc3Br)C2)nc(N)n1` (single isomer, unassigned) [Compound 30, (R/S)-(1-(3-(4-(2-amino-6-isopropylpyrimidin-4-yl)piperazin-2-yl)-4-bromophenyl)azetidin-3-yl)methanol], the IC50 is < 500 nM.

With `CNc1cc(N2CCCC(c3ncc4ccccn34)C2)nc(N)n1` (stereo not drawn) [Compound 94, 6-(3-(imidazo[1,5-a]pyridin-3-yl)piperidin-1-yl)-N4-methylpyrimidine-2,4-diamine], the IC50 was > 5000 nM.

In the case of `CC(C)c1cc(N2CCNC(c3ccc(O)cc3Br)C2)nc(N)n1` (stereo not drawn) [Compound 164, 4-(4-(2-amino-6-isopropylpyrimidin-4-yl)piperazin-2-yl)-3-bromophenol], the IC50 is < 500 nM.

Regarding `CNc1cc(N2CCCC(n3nnc4ccccc43)C2)nc(N)n1` (stereo not drawn) [Compound 93, 6-(3-(1H-benzo[d][1,2,3]triazol-1-yl)piperidin-1-yl)-N4-methylpyrimidine-2,4-diamine], the IC50 was > 5000 nM.

For `CC(C)c1cc(N2CCOC(c3cnc4ccccn34)C2)nc(N)n1` (racemic) [Compound 156, (R/S)-4-(2-(imidazo[1,2-a]pyridin-3-yl)morpholino)-6-isopropylpyrimidin-2-amine], the IC50 was > 5000 nM.

In the case of `c1ccn2c(C3CCCN(c4ccnc5[nH]cnc45)C3)cnc2c1` (stereo not drawn) [Compound 62, 7-(3-(imidazo[1,2-a]pyridin-3-yl)piperidin-1-yl)-3H-imidazo[4,5-b]pyridine], the IC50 was < 500 nM.

In the case of `CC(C)c1cc(-c2cc(-c3ccnn3C)c3ccnc(-c4cc[nH]n4)c3n2)cc(N)n1` [Compound 366, 6-isopropyl-4-(4-(1-methyl-1H-pyrazol-5-yl)-8-(1H-pyrazol-3-yl)-1,7-naphthyridin-2-yl)pyridin-2-amine], the IC50 fell in the range of 500 to 5000 nM.

In the case of `Nc1nc(NC2CC2)cc(N2CCCC(c3cnc4ccccn34)C2)n1` (stereo not drawn) [Compound 107, N4-cyclopropyl-6-(3-(imidazo[1,2-a]pyridin-3-yl)piperidin-1-yl)pyrimidine-2,4-diamine], the IC50 lay in the range of 500 to 5000 nM.

As for `O=C(c1cccc(-c2cc(O)c3ncccc3c2)c1)N1CCCC1` [Compound 293, (3-(8-hydroxyquinolin-6-yl)phenyl)(pyrrolidin-1-yl)methanone], the IC50 was in the range of 500 to 5000 nM.

With `COC1CCN(C(=O)c2n[nH]c3ccc(-c4ccc5ccnc(N)c5c4)cc23)CC1` [Compound 332, (5-(1-aminoisoquinolin-7-yl)-1H-indazol-3-yl)(4-methoxypiperidin-1-yl)methanone], the IC50 is < 500 nM.

As to `CC(C)c1cc(N2CCNC(c3cc(F)c(F)cc3Br)C2)nc(N)n1` (stereo not drawn) [Compound 170, 4-(3-(2-bromo-4,5-difluorophenyl)piperazin-1-yl)-6-isopropylpyrimidin-2-amine], the IC50 was 500 to 5000 nM.
